These results are taken from ChEMBL document CHEMBL6074670, “Discovery of NP3-253, a Potent Brain Penetrant Inhibitor of the NLRP3 Inflammasome” (J Med Chem, 2024).

Experiment [1] has as its target NACHT, LRR and PYD domains-containing protein 3 (Mus musculus) (UniProt Q8R4B8). Nature of the experiment: In vivo inhibition of NLRP3 in LPS/ATP-induced C57BL/6JRi mouse peritonitis model assessed as reduction in IL-1beta level at 3 mg/kg, po preadministered with compound for 3 hrs followed by LPS stimulation for 2 hrs and measured 15 mins after ATP addition. It counts as functional, organism-based. The settings on record: time 315.0 min.

Experiment [2] concerns the target NACHT, LRR and PYD domains-containing protein 3 (Mus musculus, UniProt Q8R4B8). Nature of the experiment: Inhibition of NLRP3 inflammasome in C57BL/6J mouse whole blood assessed as reduction in LPS/ATP induced IL-1beta secretion preincubated for 60 mins followed by LPS addition for 4 hrs prior to ATP addition for 30 mins by HTRF method. It counts as tissue-based. (Time-resolved FRET reads energy transfer from a long-lived donor to a nearby acceptor.)

The target in experiment [3] is NACHT, LRR and PYD domains-containing protein 3 (Mus musculus) (UniProt Q8R4B8). The experiment is described as follows: In vivo inhibition of NLRP3 in LPS-induced C57BL/6JRi mouse neuroinflammation model assessed as reduction in blood IL-1beta level at 0.2 mg/kg, po pretreated with LPS for 23 hrs followed by compound addition for 1 hr prior to second dose of LPS addition and measured after 4 hrs. The class given is functional, organism-based. The settings on record: time 5.0 hrs.
NACHT, LRR and PYD domains-containing protein 3 (Mus musculus), sequence (Q8R4B8 whole entry, the tested form may be a part): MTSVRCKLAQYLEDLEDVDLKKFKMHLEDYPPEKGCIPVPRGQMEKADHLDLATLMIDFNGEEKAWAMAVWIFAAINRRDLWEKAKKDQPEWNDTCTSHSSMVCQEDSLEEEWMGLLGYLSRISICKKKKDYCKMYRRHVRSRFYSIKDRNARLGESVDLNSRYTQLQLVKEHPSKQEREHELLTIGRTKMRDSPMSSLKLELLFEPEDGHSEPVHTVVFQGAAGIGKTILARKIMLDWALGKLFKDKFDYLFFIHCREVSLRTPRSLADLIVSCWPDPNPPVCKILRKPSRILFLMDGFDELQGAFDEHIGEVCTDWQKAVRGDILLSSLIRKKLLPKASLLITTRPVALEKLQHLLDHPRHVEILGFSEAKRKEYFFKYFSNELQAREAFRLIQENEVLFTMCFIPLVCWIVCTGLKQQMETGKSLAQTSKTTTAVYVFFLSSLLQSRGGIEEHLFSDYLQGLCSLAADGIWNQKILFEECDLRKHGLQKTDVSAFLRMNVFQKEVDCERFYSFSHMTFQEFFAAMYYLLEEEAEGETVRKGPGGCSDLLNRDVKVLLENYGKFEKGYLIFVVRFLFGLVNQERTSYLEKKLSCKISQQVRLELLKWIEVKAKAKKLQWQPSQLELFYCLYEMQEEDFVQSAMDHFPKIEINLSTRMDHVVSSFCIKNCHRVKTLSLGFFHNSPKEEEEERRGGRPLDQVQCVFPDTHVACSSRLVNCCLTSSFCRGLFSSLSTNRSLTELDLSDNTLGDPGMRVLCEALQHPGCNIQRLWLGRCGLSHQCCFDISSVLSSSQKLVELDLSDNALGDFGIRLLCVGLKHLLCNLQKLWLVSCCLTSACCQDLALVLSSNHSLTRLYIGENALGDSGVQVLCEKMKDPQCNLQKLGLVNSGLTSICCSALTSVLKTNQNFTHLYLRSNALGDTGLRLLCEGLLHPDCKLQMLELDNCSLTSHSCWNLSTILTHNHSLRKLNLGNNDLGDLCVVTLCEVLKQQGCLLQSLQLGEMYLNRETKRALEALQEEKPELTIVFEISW

Experiment [4] has the same target. The experiment is described as follows: In vivo inhibition of NLRP3 in LPS-induced C57BL/6JRi mouse neuroinflammation model assessed as reduction in IL-1beta level in CSF at 0.2 mg/kg, po pretreated with LPS for 23 hrs followed by compound addition for 1 hr prior to second dose of LPS addition and measured after 4 hrs. The class given is functional, organism-based. To be noted: time 5.0 hrs.

Experiment [5] shares this target. Nature of the experiment: In vivo inhibition of NLRP3 in LPS-induced C57BL/6JRi mouse neuroinflammation model assessed as reduction in IL-1beta level in CSF at 0.02 mg/kg, po pretreated with LPS for 23 hrs followed by compound addition for 1 hr prior to second dose of LPS addition and measured after 4 hrs. The class given is functional, organism-based. The settings on record: time 5.0 hrs.

Experiment [6] shares this target. The experiment is described as follows: In vivo inhibition of NLRP3 in LPS/ATP-induced C57BL/6JRi mouse peritonitis model assessed as reduction in IL-1beta level at 2 mg/kg, po preadministered with compound for 3 hrs followed by LPS stimulation for 2 hrs and measured 15 mins after ATP addition. The class given is functional, organism-based. The settings on record: time 315.0 min.

The target is the same in experiment [7]. The experiment is described as follows: In vivo inhibition of NLRP3 in LPS/ATP-induced C57BL/6JRi mouse peritonitis model assessed as reduction in IL-1beta level at 0.3 mg/kg, po preadministered with compound for 3 hrs followed by LPS stimulation for 2 hrs and measured 15 mins after ATP addition. The class given is functional, organism-based. To be noted: time 315.0 min.

The target is the same in experiment [8]. Nature of the experiment: In vivo inhibition of NLRP3 in LPS-induced C57BL/6JRi mouse neuroinflammation model assessed as reduction in IL-1beta level in CSF at 2 mg/kg, po pretreated with LPS for 23 hrs followed by compound addition for 1 hr prior to second dose of LPS addition and measured after 4 hrs. The class given is functional, organism-based. The settings on record: time 5.0 hrs.

For experiment [9] the target is unchanged. The experiment is described as follows: In vivo inhibition of NLRP3 in LPS/ATP-induced C57BL/6JRi mouse peritonitis model assessed as reduction in IL-1beta level at 0.05 mg/kg, po preadministered with compound for 3 hrs followed by LPS stimulation for 2 hrs and measured 15 mins after ATP addition. The settings on record: time 315.0 min. It counts as functional, organism-based.

In a further experiment the target is T1, Pyrin (Homo sapiens, UniProt O15553).
T1 sequence (O15553 whole entry): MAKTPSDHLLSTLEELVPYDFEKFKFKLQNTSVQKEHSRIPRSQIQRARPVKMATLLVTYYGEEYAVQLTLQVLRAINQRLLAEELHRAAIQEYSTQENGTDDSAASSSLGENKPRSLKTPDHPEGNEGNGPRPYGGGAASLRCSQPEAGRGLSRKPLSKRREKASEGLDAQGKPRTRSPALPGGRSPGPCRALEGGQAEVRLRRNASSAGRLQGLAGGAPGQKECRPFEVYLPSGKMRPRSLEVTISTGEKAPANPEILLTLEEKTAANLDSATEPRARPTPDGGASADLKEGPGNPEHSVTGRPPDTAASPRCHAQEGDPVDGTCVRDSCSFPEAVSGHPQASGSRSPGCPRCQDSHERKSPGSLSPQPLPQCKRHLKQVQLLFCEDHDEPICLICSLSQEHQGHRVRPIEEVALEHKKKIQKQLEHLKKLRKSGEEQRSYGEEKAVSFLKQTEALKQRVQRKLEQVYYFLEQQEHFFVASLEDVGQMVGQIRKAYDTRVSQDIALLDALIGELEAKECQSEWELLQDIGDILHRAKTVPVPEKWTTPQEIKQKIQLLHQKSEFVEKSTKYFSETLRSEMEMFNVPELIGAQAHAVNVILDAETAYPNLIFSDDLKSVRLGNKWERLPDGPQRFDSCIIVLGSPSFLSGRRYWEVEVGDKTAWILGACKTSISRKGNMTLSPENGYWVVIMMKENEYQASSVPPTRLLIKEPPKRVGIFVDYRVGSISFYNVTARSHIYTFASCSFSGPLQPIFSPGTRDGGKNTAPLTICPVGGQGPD
The experiment is described as follows: Inhibition of pyrin inflammasome activation in human U-937 cells assessed as IL-1beta secretion preincubated for 1 hr followed by BAA473 addition and measured after 4 hrs. It counts as cell-based.

For experiment [10], the target named is NLR family CARD domain-containing protein 4 (Homo sapiens) (UniProt Q9NPP4). Nature of the experiment: Inhibition of NLRC4 activation overexpressed in human THP-1 cells assessed as reduction in IL-1beta secretion preincubated for 1 hr followed by PrgI protein addition and measured after 20 hrs. It counts as cell-based.
NLR family CARD domain-containing protein 4 (Homo sapiens), sequence (Q9NPP4 whole entry, the tested form may be a part): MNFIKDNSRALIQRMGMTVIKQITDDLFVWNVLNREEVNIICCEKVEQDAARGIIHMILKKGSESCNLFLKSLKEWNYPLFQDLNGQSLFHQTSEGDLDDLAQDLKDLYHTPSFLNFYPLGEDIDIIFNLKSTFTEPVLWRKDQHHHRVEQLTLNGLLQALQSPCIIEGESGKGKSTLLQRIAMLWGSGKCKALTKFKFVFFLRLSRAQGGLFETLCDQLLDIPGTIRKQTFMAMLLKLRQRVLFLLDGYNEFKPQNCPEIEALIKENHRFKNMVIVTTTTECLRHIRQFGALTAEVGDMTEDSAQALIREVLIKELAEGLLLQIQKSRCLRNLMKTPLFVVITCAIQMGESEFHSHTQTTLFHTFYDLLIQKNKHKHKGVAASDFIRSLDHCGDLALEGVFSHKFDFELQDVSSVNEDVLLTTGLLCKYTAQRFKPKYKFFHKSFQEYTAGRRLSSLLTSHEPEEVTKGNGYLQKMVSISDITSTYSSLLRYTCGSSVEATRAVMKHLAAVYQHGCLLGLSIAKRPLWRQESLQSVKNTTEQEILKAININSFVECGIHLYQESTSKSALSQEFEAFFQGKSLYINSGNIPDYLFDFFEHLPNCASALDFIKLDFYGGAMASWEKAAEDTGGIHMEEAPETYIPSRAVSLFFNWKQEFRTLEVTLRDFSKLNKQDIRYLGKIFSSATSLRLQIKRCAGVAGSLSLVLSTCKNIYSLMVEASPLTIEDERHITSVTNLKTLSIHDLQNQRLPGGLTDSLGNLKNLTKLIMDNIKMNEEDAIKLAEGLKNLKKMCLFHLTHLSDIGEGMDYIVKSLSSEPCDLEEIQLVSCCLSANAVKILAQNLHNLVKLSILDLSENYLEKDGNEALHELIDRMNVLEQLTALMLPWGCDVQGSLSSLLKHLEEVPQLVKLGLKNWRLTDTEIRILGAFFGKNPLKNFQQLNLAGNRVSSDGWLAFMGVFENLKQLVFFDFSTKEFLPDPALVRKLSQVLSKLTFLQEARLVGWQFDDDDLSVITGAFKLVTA
Experiment [11] has as its target NACHT, LRR and PYD domains-containing protein 3 (Mus musculus) (UniProt Q8R4B8). Nature of the experiment: In vivo inhibition of NLRP3 in LPS-induced C57BL/6JRi mouse neuroinflammation model assessed as reduction in blood IL-1beta level at 0.02 mg/kg, po pretreated with LPS for 23 hrs followed by compound addition for 1 hr prior to second dose of LPS addition and measured after 4 hrs. The settings on record: time 5.0 hrs. It counts as functional, organism-based.

For experiment [12], the target named is Sodium-dependent serotonin transporter (Homo sapiens) (UniProt P31645). Nature of the experiment: Binding affinity to 5HTT (unknown origin).
Sodium-dependent serotonin transporter (Homo sapiens), sequence (P31645 whole entry, looked up, the tested form may be a part): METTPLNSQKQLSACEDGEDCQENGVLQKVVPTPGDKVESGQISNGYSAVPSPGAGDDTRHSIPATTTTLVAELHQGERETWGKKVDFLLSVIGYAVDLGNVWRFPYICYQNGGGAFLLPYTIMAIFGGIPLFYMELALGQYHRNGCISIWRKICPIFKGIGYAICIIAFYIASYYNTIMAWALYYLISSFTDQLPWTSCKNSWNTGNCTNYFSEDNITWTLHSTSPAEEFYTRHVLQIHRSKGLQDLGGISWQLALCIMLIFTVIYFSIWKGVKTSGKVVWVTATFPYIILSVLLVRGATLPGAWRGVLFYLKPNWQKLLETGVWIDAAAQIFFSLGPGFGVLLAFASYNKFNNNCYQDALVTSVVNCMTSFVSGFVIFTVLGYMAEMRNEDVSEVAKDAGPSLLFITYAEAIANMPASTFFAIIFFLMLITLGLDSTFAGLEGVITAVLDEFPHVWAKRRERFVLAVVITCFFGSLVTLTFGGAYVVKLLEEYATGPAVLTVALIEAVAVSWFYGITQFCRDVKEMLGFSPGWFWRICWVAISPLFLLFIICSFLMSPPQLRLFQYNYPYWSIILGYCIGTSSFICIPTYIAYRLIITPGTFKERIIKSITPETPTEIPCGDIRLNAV
Experiment [13] addresses NACHT, LRR and PYD domains-containing protein 3 (Mus musculus) (UniProt Q8R4B8). The experiment is described as follows: In vivo inhibition of NLRP3 in LPS/ATP-induced C57BL/6JRi mouse peritonitis model assessed as reduction in IL-1beta level at 0.0083 mg/kg, po preadministered with compound for 3 hrs followed by LPS stimulation for 2 hrs and measured 15 mins after ATP addition. The class given is functional, organism-based. To be noted: time 315.0 min.

Experiment [14] shares this target. The experiment is described as follows: In vivo inhibition of NLRP3 in LPS-induced C57BL/6JRi mouse neuroinflammation model assessed as reduction in blood IL-1beta level at 2 mg/kg, po pretreated with LPS for 23 hrs followed by compound addition for 1 hr prior to second dose of LPS addition and measured after 4 hrs. It counts as functional, organism-based. The settings on record: time 5.0 hrs.

Experiment [15] addresses T2, Muscarinic acetylcholine receptor M2 (Homo sapiens) (UniProt P08172).
T2 sequence (whole entry): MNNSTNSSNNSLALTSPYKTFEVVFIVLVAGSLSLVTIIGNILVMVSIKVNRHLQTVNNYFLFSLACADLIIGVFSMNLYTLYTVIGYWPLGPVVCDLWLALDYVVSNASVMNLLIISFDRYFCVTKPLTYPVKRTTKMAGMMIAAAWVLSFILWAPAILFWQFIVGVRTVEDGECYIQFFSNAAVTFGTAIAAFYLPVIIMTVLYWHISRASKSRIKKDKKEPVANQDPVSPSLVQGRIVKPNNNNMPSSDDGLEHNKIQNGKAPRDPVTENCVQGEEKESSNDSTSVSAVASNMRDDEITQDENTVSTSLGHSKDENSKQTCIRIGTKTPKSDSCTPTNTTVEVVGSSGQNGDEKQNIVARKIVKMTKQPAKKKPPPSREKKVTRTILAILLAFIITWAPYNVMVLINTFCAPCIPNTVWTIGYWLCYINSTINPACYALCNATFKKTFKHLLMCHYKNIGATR
Nature of the experiment: Binding affinity to M2 muscarinic receptor (unknown origin).

Each structure is given as a SMILES string. Activity calls are given as the source filed them. The calls are words filed in the database; no cut-off is given here. Where only a bound is given, the exact number is not on record here.

NACHT, LRR and PYD domains-containing protein 3, sequence (Q8R4B8 whole entry, the tested form may be a part): as the sequence (Q8R4B8 whole entry, the tested form may be a part) above

A word on the inhibition: it is the change of the read-out against control, counted positive when it falls. For orientation: IC50 means the concentration needed to halve the response being measured. On to `Cc1cc(C)c(-c2ccc(N[C@@H]3CCCN(C)C3)nn2)c(O)c1`, for which, in experiment [1], the inhibition was found to be 99%. For the same compound, the concentration for half-maximal inhibition (IC50) in experiment [2] came out at 5.8 nM.
Turning to `CCN1CCC[C@@H](Nc2ccc(-c3c(C)cc(C(F)(F)F)cc3O)nn2)C1`, the inhibition was 87.7% in [3]; 51.6% in experiment [4]; -2% in experiment [5]; 99.6% in experiment [6]; 99.4% in experiment [1]; 98.3% in experiment [7]. The inhibition is 96.5% in experiment [8]; 43.9% in experiment [9]; 42.5% in experiment [11]; 16% in experiment [13]; 94.3% in experiment [14]. Further, the IC50 is 2.5 nM in experiment [2] and over 33000 nM at Pyrin. Moreover, the inhibition result in [10] is “inactive”. Also, the result in experiment [12] and in [15] was Active.
Regarding `Cc1cc(C(F)(F)F)cc(O)c1-c1ccc(N[C@@H]2CCCN(C)C2)nn1`, the inhibition in experiment [1] turned out to be 99.5%.
Regarding `Cc1cc(C(F)(F)F)cc(O)c1-c1ccc(N[C@@H]2CCCN(CCO)C2)nn1`, the inhibition in [1] turned out to be 99.6%. Further, the IC50 in [2] worked out at 2.1 nM.
